From PubChem BioAssay (NCI)
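A five-concentration, 48-hour dose response in 96-well plates underlies each endpoint, interpolated linearly between surrounding concentrations. TGI: total growth inhibition.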

Columns and labels:
Experiment in all cases: DTP human tumour cell line panel, 48 h
[1] = tested on: OVCAR-4 ovarian
[2] = tested on: HOP-92 NSCLC
[3] = tested on: CAKI-1 renal

Measured: TGI

CC(=O)OCC1OC(n2c(=S)n(-c3ccccc3)c(=O)c3ccccc32)C(OC(C)=O)C(OC(C)=O)C1OC(C)=O (stereo not drawn)
> 100 µM: all assays above
